The record followed here is ChEMBL document CHEMBL1146423, “Adenosine-1 active ligands: cirsimarin, a flavone glycoside from Microtea debilis” (J Nat Prod, 1997).

Calls of active or inactive are those of the source. No cut-off for these calls is given here.

The term Ki denotes the dissociation constant of the complex between target and ligand, obtained from inhibition or displacement. The low end stands for higher affinity, the high end for lower affinity.

What all share (assay type): cell membranes
In experiment [1] the target is T1, Adenosine receptor A1 (Rattus norvegicus) (UniProt P25099).
T1 sequence (whole entry): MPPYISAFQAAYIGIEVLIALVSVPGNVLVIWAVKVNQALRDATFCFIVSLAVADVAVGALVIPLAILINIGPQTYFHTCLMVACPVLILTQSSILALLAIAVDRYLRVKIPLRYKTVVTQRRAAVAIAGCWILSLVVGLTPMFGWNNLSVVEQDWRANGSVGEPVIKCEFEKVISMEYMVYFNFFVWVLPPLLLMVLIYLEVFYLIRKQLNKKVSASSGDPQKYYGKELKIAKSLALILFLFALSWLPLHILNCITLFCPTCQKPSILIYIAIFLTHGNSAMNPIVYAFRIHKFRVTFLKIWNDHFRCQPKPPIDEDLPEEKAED
Nature of the experiment: Displacement of [3H]DPCPX from adenosine A1 receptor in rat forebrain membrane assessed as fraction of receptor bound radioligand at 100 ug/mL.

Another experiment deals with T2, Adenosine receptor A1 (Rattus norvegicus, UniProt P25099).
T2 sequence (P25099 whole entry): T1 sequence (whole entry)
As to the kind of experiment: Displacement of [3H]DPCPX from adenosine A1 receptor in rat forebrain membrane. Background: Loss of bound radioactivity is the signal in a displacement assay; it reports binding, not function.

Experiment [2] deals with T1, Adenosine receptor A1 (Rattus norvegicus). Nature of the experiment: Displacement of [3H]DPCPX from adenosine A1 receptor in rat forebrain membrane in presence of GTP.

`O=c1c(O[C@@H]2O[C@H](CO)[C@H](O)[C@H](O)[C@H]2O)c(-c2ccc(O)c(O)c2)oc2cc(O)cc(O)c12`: the Activity in experiment [1] was found to be 86%.
Consider `C[C@@H]1O[C@@H](Oc2c(-c3ccc(O)c(O)c3)oc3cc(O)cc(O)c3c2=O)[C@H](O)[C@H](O)[C@H]1O` (stereo in doubt; 6), for which the Activity in experiment [1] is 50%.
Regarding `COc1cc2oc(-c3ccc(O[C@@H]4O[C@H](CO)[C@@H](O)[C@H](O)[C@H]4O)cc3)cc(=O)c2c(O)c1OC` [CIRSIMARIN], in experiment [1], the Activity is 2%. This compound also came in with a Ki on Adenosine receptor A1 of 3.2 µM. Besides, the result in experiment [2] was Active.
Consider `O=c1c(O)c(-c2cc(O)c(O)c(O)c2)oc2cc(O)cc(O)c12`, for which, in experiment [1], the Activity is 24%.
Take `O=c1cc(-c2ccc(O)cc2)oc2cc(O)cc(O)c12`: in experiment [1], the Activity is 50%.
As for `O=c1c(O)c(-c2ccc(O)cc2)oc2cc(O)cc(O)c12`, the Activity in experiment [1] was 18%.
For the compound `COc1cc2oc(-c3ccc(O)cc3)cc(=O)c2c(O)c1OC`, the Activity in experiment [1] was 48%.
Consider `COc1cc(-c2cc(=O)c3c(O)cc(O[C@@H]4O[C@H](CO)[C@@H](O)[C@H](O)[C@H]4O[C@@H]4O[C@@H](C)[C@H](O)[C@@H](O)[C@H]4O)cc3o2)ccc1O`, for which the Activity in experiment [1] is 94%.
Turning to `C[C@@H]1O[C@@H](OC[C@H]2O[C@@H](Oc3c(-c4ccc(O)cc4)oc4cc(O)cc(O)c4c3=O)[C@H](O)[C@@H](O)[C@@H]2O)[C@H](O)[C@H](O)[C@H]1O`, in experiment [1], the Activity turned out to be 37%.
For `C[C@@H]1O[C@@H](Oc2c(-c3ccc(O)c(O)c3)oc3cc(O)cc(O)c3c2=O)[C@H](O)[C@H](O)[C@H]1O` (stereo in doubt; 8), the Activity in experiment [1] turned out to be 58%.
The same measure, in the same setting: for `C[C@@H]1O[C@@H](OC[C@H]2O[C@@H](Oc3c(-c4ccc(O)c(O)c4)oc4cc(O)cc(O)c4c3=O)[C@H](O)[C@@H](O)[C@@H]2O)[C@H](O)[C@H](O)[C@H]1O` the value was 103%; for `O=c1cc(-c2ccc(O)cc2)oc2c([C@@H]3O[C@H](CO)[C@@H](O)[C@H](O)[C@H]3O)c(O)cc(O)c12`, 103%.
